# From patent US7416840B2, “Replication of hepatitis C virus in non-hepatic epithelial and mouse hepatic cells” (priority 2002, dated 2008)
# Entries after “also recorded” stand apart in the source; their conditions may differ. Like-named read-outs stand apart in the source and are kept apart here.
# Key:
# [1] = tested on: IFN-α response against the HCV replicon; type: cell-based, human; conditions: for viral RNA levels versus cells treated with IFN-α alone: 5 μM lactacystin or 1 μM epoxomicin 1 h before IFN-α for 6 h, both time points; for IFN response against HCV when inhibitor is added after induction: IFN-α for 10 h, then inhibitor for 12 h; for reduction of HCV RNA levels by IFN-α in the presence of proteasome inhibitor: inhibitor 1 h before IFN-α 100 IU/ml for 6 h, then 12 h
# HCV subgenomic replicons [2] = type: cell-based
# Mx-1 gene = type: cell-based, human; conditions: GS4.1 cells, with IFN-α
# HCV subgenomic replicons [3] = type: cell-based; remark: listed apart in the source
# SL1 cells = type: cell-based, Homo sapiens (human)
# KUNCD20 cells = test: Cell death in IFN-α-treated KUNCD20 cells, light microscopy or annexin V staining; type: cell-based, Homo sapiens (human)
# Source text: To address this problem, the IFN response against HCV in SL1 cells was compared with that against the flavivirus Kunjin virus in HeLa cells. For this purpose a pool of HeLa cells, KUNCD20, expressing Kunjin virus subgenomic replicons lacking the structural genes, similar to the HCV subgenomic replicons was established (Khromykh, A. A., and E. G. Westaway. 1997. J. Virol. 71:1497-1505). The Kunjin virus RNA levels in these cells were approximately fivefold higher than those observed with HCV in SL1 cells. […] Importantly, cell death in IFN-α-treated KUNCD20 cells was not detected either by light microscopy or annexin V staining (results not shown).
# eIF-2α = type: cell-based, human; conditions: Huh7, GS4.1, HeLa, SL1 cells; 100 IU of IFN-α/ml 12 h; poly(I:C) transfection 3 h
# Kunjin virus replicons = type: cell-based; conditions: KUNCD20 cells, 0.01 to 160 IU of IFN-α/ml, 72 h
# HCV = HCV genotypes 2 and 3; cited from earlier work
# IFN-β gene = type: cell-based, human; conditions: for expression of IFN-β: IFN-α alone
molecule,measurement,setting,value
C[S+]([O-])c1ccc(-c2nc(-c3ccncc3)c(-c3ccc(F)cc3)[nH]2)cc1 (stereo not shown) [SB 203580],inhibition of the IFN-α response against HCV replicon,[1]; GS4.1 (Huh7) cells,did not inhibit the IFN response at detectable levels
"Nc1ncc2[nH]cnc2n1 [2-AP, 2-aminopurine]",apoptosis,"HeLa cells; HeLa cells, treatment for more than 12 h",induced apoptosis
same,inhibition of the IFN-α response against HCV replicon,[1]; GS4.1 (Huh7) cells,did not block the IFN response against HCV; also recorded: no measurable effect on the IFN response against the HCV replicon
"CC(=O)N[C@@H](CSC(=O)[C@]1([C@@H](O)C(C)C)NC(=O)[C@H](C)[C@@H]1O)C(=O)O [Lactacystin, lactacystin]","HCV RNA levels, drug alone","HCV subgenomic replicons [2]; GS4.1 cells, higher doses, without IFN-α",slight reduction of HCV RNA levels
same,induction of IFN-induced Mx-1 (Mx-A) mRNA,Mx-1 gene,did not inhibit induction of Mx-A
same,viral RNA levels versus cells treated with IFN-α alone,[1]; GS4.1 cells,significantly higher
same,IFN response against HCV when inhibitor is added after induction,[1]; GS4.1 cells,the IFN response against HCV remained effective
same,reduction of HCV RNA levels by IFN-α in the presence of proteasome inhibitor,[1]; GS4.1 cells,30%
"O=c1c(-c2ccc(O)cc2)coc2cc(O)cc(O)c12 [Genistein, genistein]",induction of IFN-induced Mx-1 (Mx-A) mRNA,Mx-1 gene,suppressed the induction of the IFN-induced Mx-1 gene
same,inhibition of the IFN-α response against HCV replicon,[1]; GS4.1 (Huh7) cells,antagonized the IFN-α response against the HCV replicon
same,inhibition of the IFN response against HCV at increased drug concentration,"[1]; GS4.1 cells, concentration raised from 100 to 300 μM",complete inhibition of the IFN response against HCV
"C[C@@]1(O)[C@H](O)[C@@H](CO)O[C@H]1n1cnc2c(N)ncnc21 [2CMA, 2′-C-methyladenosine]","viral RNA (vRNA), anti-HCV activity","HCV subgenomic replicons [2]; GS4.1 (Huh7) cells, 10 μM, harvested at 6, 12, 24, 48, 72 hours",effectively inhibits HCV
same,"viral RNA (vRNA), anti-HCV activity","HCV subgenomic replicons [3]; SL1 (HeLa) cells, 10 μM, harvested at 6, 12, 24, 48, 72 hours",effectively inhibits HCV
CC[C@H](C)[C@H](NC(=O)[C@H]([C@@H](C)CC)N(C)C(C)=O)C(=O)N[C@H](C(=O)N[C@@H](CC(C)C)C(=O)[C@@]1(C)CO1)[C@@H](C)O [Epoxomicin],induction of IFN-induced Mx-1 (Mx-A) mRNA,Mx-1 gene,did not inhibit induction of Mx-A
same,viral RNA levels versus cells treated with IFN-α alone,[1]; GS4.1 cells,significantly higher
same,IFN response against HCV when inhibitor is added after induction,[1]; GS4.1 cells,the IFN response against HCV remained effective
same,reduction of HCV RNA levels by IFN-α in the presence of proteasome inhibitor,[1]; GS4.1 cells,30%
C[C@@H]1C[C@@H]([C@H](O)CC2CC(=O)NC(=O)C2)C(=O)[C@@H](C)C1 [Cycloheximide],inhibition of the IFN-α response against HCV replicon,[1]; GS4.1 (Huh7) cells,decline of viral RNA levels was reduced
"O=C([O-])c1ccccc1O.[Na+] [Sodium salicylate, sodium salicylate]",inhibition of the IFN-α response against HCV replicon,[1],did not inhibit the IFN response at detectable levels
ZVAD-fluoromethyl ketone [ZVAD-FMK],prevention of IFN-α-induced cell death (apoptosis),"SL1 cells; SL1 cells, 100 IU of IFN-α/ml with 20 μM ZVAD-FMK",could be prevented
IFN-α,cell death,KUNCD20 cells,not detected
same,drop of HCV RNA levels,"HCV subgenomic replicons [2]; GS4.1 cells, IFN-α 100 IU/ml for 6 h, within 18 h",70%
same,apoptosis after IFN-α treatment,HeLa cells; normal HeLa cells,did not undergo apoptosis
same,IC50 of IFN-α (reduction of virus replication),"HCV subgenomic replicons [3]; HeLa cell lines such as SL1, 72 h",~0.1 IU/ml
same,fold lower IC50 in HeLa cell lines than in Huh7-derived cell lines,HCV subgenomic replicons [3]; HeLa vs Huh7-derived cell lines,approximately 10 fold
same,eIF-2α-P levels,eIF-2α,did not induce eIF-2α-P levels
same,cell death,"SL1 cells; SL1 and other HeLa derived cell lines, more than 30 IU of IFN-α/ml, between 6 and 20 h post treatment",induced cell death in a significant fraction of cells
same,fraction of apoptotic cells (annexin V-FITC positive),"SL1 cells; SL1 cells, 100 IU of IFN-α/ml, 24 h, flow cytometry",more than 30%
same,"Kunjin virus replicon RNA, inhibition of viral replication",Kunjin virus replicons,only slightly inhibited viral replication
same,response to IFN-α therapy,HCV,≤ 80%
same,expression of IFN-β,IFN-β gene; HeLa cells,not in HeLa cells
same,expression of IFN-β,IFN-β gene; SL1 cells,could be induced
Nc1nc(=O)n([C@@H]2O[C@H](CO)[C@@H](O)[C@H]2O)cc1O [5-OH-cytidine],"HCV RNA band intensity, antiviral activity","HCV subgenomic replicons [2]; GS4.1 (Huh7) cells, indicated amounts, 72 hours",effectively inhibits HCV replication
same,"HCV RNA band intensity, antiviral activity","HCV subgenomic replicons [3]; SL1 (HeLa) cells, indicated amounts, 72 hours",effectively inhibits HCV replication
poly(I:C),eIF-2α-P levels,eIF-2α,augmented eIF-2α-P levels
same,IFN-β transcription,"IFN-β gene; HeLa and SL1 cells, poly(I:C) alone",induced
same,induction of IFN-β mRNA,"IFN-β gene; Huh7, GS4.1 and other Huh7-derived cells, primed with IFN-α then transfected with poly(I:C)",only a weak induction of IFN-β was observed
